Legend:
ME/CFS patients = experiment: Beck Depression Inventory (BDI) total score, phase II clinical study; type: in vivo, human; settings: 2-way ANOVA, OSU6162 vs placebo
Method: Circular coated tablets for oral use of 15 mg and matching placebos was used. The tablets were administered by research nurses at the study site. The tablets were circular coated tablets for oral use containing 15 mg OSU6162. Matching placebos were used. The start dose was 15 mg OSU6162 twice daily (before breakfast and lunch) during 1 week with dose increase up to 30 mg twice daily during the following week. Additionally, the clinical effect was evaluated using the FF-scale, The Beck/BDI scale, VAS pain scale and with neuropsychological tests. To examine the effect of treatment and concomitant use of an antidepressant, antidepressant was included as a fixed factor in the analyses. […] Outcome targets FF, MFS and BDI were measured.

[1] = OSU6162 concentration in blood plasma; type: in vivo, human
Method: Next, the concentration of OSU6162 in blood plasma was measured and analyzed for correlations with time and changes in FF, MFS and BDI score.
Plasma concentrations of OSU6162 were measured in 30 patients who received placebo and in 31 patients who received OSU6162. The blood sample was drawn in the morning after the tablet was taken—the time of the tablet intake was noted and reported to the clinic by the patient. The blood sample was taken at minimum 65 and at maximum 180 minutes after tablet intake. The mean time was 123 minutes and the standard deviation 33 minutes.
In order to analyze the relationship between the treatment outcome and the concentration of OSU6162 in blood plasma, OSU6162 concentrations in patients measured after week 2 were plotted against change in FF, MFS and BDI score (FIGS. 6, 7 and 8).

correlation between plasma concentration and time between tablet intake and blood sampling ([1]; Spearman rank correlation, sampling 65-180 minutes after tablet intake): No significant correlation
therapeutic optimum plasma concentration ([1]; plasma after week 2 plotted against change in FF, MFS and BDI score, above 0.7 μM no further improvement): 0.3 to 0.7 µM
SMILES: CCCN1CCC[C@@H](c2cccc(S(C)(=O)=O)c2)C1.Cl [OSU6162, (3S)-3-[3-(methylsulfonyl)-phenyl]-1-propylpiperidine hydrochloride]
BDI main effect of treatment (ME/CFS patients): None

From US10702512B2, “Treatment of debilitating fatigue” (A. CARLSSON RESEARCH AB, priority 2015, dated 2020)
